Source: ChEMBL document CHEMBL1151519, “Xanthene derived potent nonpeptidic inhibitors of recombinant human calpain I” (Bioorg Med Chem Lett, 1996)

Legend:
[1] = biological target: T1, Calpain-1 catalytic subunit (Homo sapiens, UniProt P07384); experiment: (§1) Inhibitory activity of compound against recombinant human Calpain 1
T1 sequence (P07384 whole entry): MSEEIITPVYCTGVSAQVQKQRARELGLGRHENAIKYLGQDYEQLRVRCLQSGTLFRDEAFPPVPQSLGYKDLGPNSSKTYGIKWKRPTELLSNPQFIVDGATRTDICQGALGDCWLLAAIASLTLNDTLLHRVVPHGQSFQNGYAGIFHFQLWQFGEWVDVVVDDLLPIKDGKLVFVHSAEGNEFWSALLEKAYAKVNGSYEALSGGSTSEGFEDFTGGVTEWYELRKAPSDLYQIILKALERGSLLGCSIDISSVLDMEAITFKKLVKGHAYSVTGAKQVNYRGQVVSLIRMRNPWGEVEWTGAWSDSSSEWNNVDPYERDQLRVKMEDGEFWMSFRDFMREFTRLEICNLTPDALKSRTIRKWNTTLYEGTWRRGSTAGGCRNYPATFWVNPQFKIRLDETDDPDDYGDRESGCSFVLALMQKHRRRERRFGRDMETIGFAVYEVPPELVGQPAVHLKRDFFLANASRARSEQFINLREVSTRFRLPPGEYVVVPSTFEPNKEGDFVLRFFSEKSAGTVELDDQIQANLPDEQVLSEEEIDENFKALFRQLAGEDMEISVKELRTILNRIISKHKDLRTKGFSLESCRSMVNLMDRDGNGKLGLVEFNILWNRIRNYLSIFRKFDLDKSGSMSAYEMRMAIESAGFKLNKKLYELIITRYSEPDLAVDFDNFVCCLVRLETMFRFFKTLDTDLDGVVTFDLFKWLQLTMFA

[2] = biological target: T2, Calpain-1 catalytic subunit (Homo sapiens) (UniProt P07384); experiment: as §1
T2 sequence (whole entry): T1 sequence (P07384 whole entry)

Compound | IC50 [1] [nM] | K obs / 1 [2] [M⁻¹ s⁻¹]
CC(C)C[C@H](CC(=O)C1c2ccccc2Oc2ccccc21)C(=O)N[C@H](C=O)CC(C)C | 25 | –
CC(C)C[C@H](CC(=O)C1c2ccccc2Oc2ccccc21)C(=O)NC(Cc1ccccc1)C(=O)CF (stereo partly specified) | – | 76000
CCNC(=O)C(CC(C)C)NC(=O)[C@@H](CC(=O)C1c2ccccc2Oc2ccccc21)CC(C)C (stereo partly specified) | 130 | –
CC(C)C[C@H](CC(=O)C(c1ccccc1)c1ccccc1)C(=O)N[C@H](C=O)CC(C)C | 50 | –

Continued by falling IC50 [1], values first:

IC50 [1] [nM] | K obs / 1 [2] [M⁻¹ s⁻¹] | Compound
240 | – | CCNC(=O)C(=O)C(CC)NC(=O)[C@H](CC(C)C)NC(=O)OCc1ccccc1 (stereo partly specified)
138 | – | CC(C)C[C@H](CC(=O)CCCCc1ccccc1)C(=O)N[C@H](C=O)CC(C)C
